Data taken from article PMC5474694, “Fragment-Sized EthR Inhibitors Exhibit Exceptionally Strong Ethionamide Boosting Effect in Whole-Cell Mycobacterium tuberculosis Assays” (ACS Chemical Biology, 2017).

How the values were obtained:
M. tuberculosis [1] = format: cell-based, Mycobacterium tuberculosis (ATCC 27294); conditions: for MEC for the 10-fold boosting of ethionamide / MEC (minimum effective concentration) / ethionamide boosting ability in M. tuberculosis culture: in the presence of 1/10 of the MIC of ethionamide; for MEC (minimum effective concentration): mean ± standard deviation of two independent replicates; for fold improvement in MEC on the starting fragment 1: relative to fragment 1; for fold drop in potency (MEC) on addition of an extra methylene unit to the linker: 15 relative to 14, 29 relative to 28
[2] = tested on: M. tuberculosis infected murine macrophages; assay: Macrophage (intracellular) assay; format: cell-based, M. tuberculosis H37Rv-GFP in Raw264.7 macrophages; conditions: for IC50 / EC50: Mycobacterium tuberculosis, Macrophage; for IC50: in the absence of ethionamide, read-out: IC50, intrinsic bactericidal effect; for EC50: in the presence of 1/10 of the MIC of ethionamide; for concentrations at which intrinsic bactericidal activity against M. tuberculosis is seen: compound alone, without ethionamide
M. tuberculosis [3] = tested on: M. tuberculosis; parameters: method as in PMID 24313835; conditions: cited from earlier work
EthR = EthR (Mycobacterium tuberculosis, UniProt P9WMC1); assay: Isothermal titration calorimetry (ITC) binding to EthR; conditions: n = 1, one site binding model
Description: Isothermal titration calorimetry (ITC)
An aqueous solution of the fragment to be tested (1 mM) was prepared containing NaCl (300 mM), Tris.HCl (20 mM, pH = 8.0), d6-DMSO (10% v/v) and glycerol (to match the 10% v/v glycerol content in the EthR stock solution). A separate aqueous solution of EthR (50 μM) containing NaCl (300 mM), Tris.HCl (20 mM, pH = 8.0) and DMSO-d6 (10% v/v) was prepared and placed in the sample cell of a MicroCal iTC200 microcalorimeter (GE Healthcare). The fragment solution was then titrated to the EthR solution over 19 or 39 injections (first injection of 0.4 μl and subsequent injections of 2.0 μL or 1.0 μL). Data was fitted to a one site binding model using Origin software.
Figure S10 ITC trace for cyclopentylmethyl pyrrolidine-1-carboxylate 2 binding to EthR.
(1 picture or pasted object on this page, not shown here)

Chain of EthR (P9WMC1 whole entry, looked up): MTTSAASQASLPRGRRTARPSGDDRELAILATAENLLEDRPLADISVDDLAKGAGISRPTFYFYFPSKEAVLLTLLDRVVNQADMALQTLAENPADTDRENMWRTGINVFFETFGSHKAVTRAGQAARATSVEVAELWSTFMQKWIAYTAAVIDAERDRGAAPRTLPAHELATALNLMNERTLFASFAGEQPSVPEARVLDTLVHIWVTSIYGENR

SMILES: O=C(CCCC1CCCCC1)N1CCCC1 [Compound 14]
- MEC for the 10-fold boosting of ethionamide (M. tuberculosis [1]): 400 nM
- MEC (minimum effective concentration) (M. tuberculosis [1]): 0.4 ± 0.2 µM
- fold improvement in MEC on the starting fragment 1 (M. tuberculosis [1]): approximately 7 fold
- IC50 [2]: ~1 µM
- EC50 [2]: 0.04 µM

SMILES: O=C(CC1CCCC1)N1CCCC1 [Compound 12]
- MEC (minimum effective concentration) (M. tuberculosis [1]): 19 ± 7.5 µM

SMILES: O=C(OCC1CCCC1)N1CCCCCC1 [Compound 21]
- ethionamide boosting ability in M. tuberculosis culture (M. tuberculosis [1]): loss of ethionamide boosting ability
- MEC (minimum effective concentration) (M. tuberculosis [1]): > 50 µM

SMILES: O=C(NCC1CCOC1)N1CCCC1 (centres unmarked) [Compound 10]
- MEC (minimum effective concentration) (M. tuberculosis [1]): >50 µM

SMILES: O=C(OCCC1CCCC1)N1CCCC1 [Compound 22]
- MEC (minimum effective concentration) (M. tuberculosis [1]): 1.6 ± 0.9 µM
- ethionamide boosting in the macrophage assay [2]: significant boosting of ethionamide
- concentrations at which intrinsic bactericidal activity against M. tuberculosis is seen [2]: higher than 1 μM

SMILES: CCc1cc(C(N)=S)ccn1 [ethionamide]
- MIC of ethionamide (M. tuberculosis [3]; ethionamide alone): 15 µM

SMILES: O=C(OCC1CCCC1)N1CCC1 [Compound 27]
- MEC (minimum effective concentration) (M. tuberculosis [1]): 13 ± 7.2 µM

SMILES: O=C(CCC1CCCCC1)N1CCCC1 [Compound 13]
- MEC (minimum effective concentration) (M. tuberculosis [1]): 0.8 ± 0.5 µM
- fold improvement in MEC on the starting fragment 1 (M. tuberculosis [1]): approximately 4 fold

SMILES: CC(C)(C)OC(=O)N1CCCC1 [Compound 30, Boc-pyrrolidine]
- MEC (minimum effective concentration) (M. tuberculosis [1]): > 50 µM

SMILES: O=C(OCC1CCCC1)N1CCCCC1 [Compound 20]
- ethionamide boosting ability in M. tuberculosis culture (M. tuberculosis [1]): loss of ethionamide boosting ability
- MEC (minimum effective concentration) (M. tuberculosis [1]): > 50 µM

SMILES: O=C(OCC1CCCCC1)N1CCCC1 [Compound 25]
- MEC (minimum effective concentration) (M. tuberculosis [1]): 1.6 ± 0.9 µM
- ethionamide boosting in the macrophage assay [2]: significant boosting of ethionamide
- concentrations at which intrinsic bactericidal activity against M. tuberculosis is seen [2]: higher than 1 μM

SMILES: O=C(C1CCCC1)N1CCCC1 [Compound 11]
- MEC (minimum effective concentration) (M. tuberculosis [1]): > 50 µM

SMILES: CCCC(=O)N1CCCC1 [Compound 19]
- MEC (minimum effective concentration) (M. tuberculosis [1]): > 50 µM

SMILES: O=C(N1CCCC1)C12CC3CC(CC(C3)C1)C2 [Compound 16]
- MEC (minimum effective concentration) (M. tuberculosis [1]): > 50 µM

SMILES: O=S(=O)(CCC1CCCC1)N1CCCC1 [Compound 5]
- MEC (minimum effective concentration) (M. tuberculosis [1]): >50 µM
- Kd (EthR): 16 µM

SMILES: O=C(OCCCCC1CCCCC1)N1CCCC1 [Compound 29]
- fold drop in potency (MEC) on addition of an extra methylene unit to the linker (M. tuberculosis [1]): roughly 16 fold
- MEC (minimum effective concentration) (M. tuberculosis [1]): 6.3 ± 3.6 µM

SMILES: O=C(/C=C/c1ccoc1)N1CCCC1 [Compound 7]
- MEC (minimum effective concentration) (M. tuberculosis [1]): >50 µM
- Kd (EthR): 20 µM

SMILES: O=S(=O)(NCC1CCCC1)N1CCCC1 [Compound 6]
- MEC (minimum effective concentration) (M. tuberculosis [1]): >50 µM
- Kd (EthR): 20 µM

SMILES: O=C(OCCCC1CCCC1)N1CCCC1 [Compound 28]
- MEC for the 10-fold boosting of ethionamide (M. tuberculosis [1]): 400 nM
- MEC (minimum effective concentration) (M. tuberculosis [1]): 0.4 ± 0.2 µM
- fold improvement in MEC on the starting fragment 1 (M. tuberculosis [1]): roughly 7 fold
- IC50 [2]: ~1 µM
- EC50 [2]: 0.05 µM

SMILES: O=C(CCC1CCCC1)N1CCCC1 [Compound 1]
- MIC of ethionamide in the presence of fragment 1 (M. tuberculosis [3]; fragment 1 at a concentration of 1 μM): approximately 2 μM
- ethionamide boosting in the macrophage assay [2]: significant boosting of ethionamide
- concentrations at which intrinsic bactericidal activity against M. tuberculosis is seen [2]: higher than 1 μM

SMILES: O=C(NCC1CCCC1)N1CCCC1 [Compound 3]
- MEC (minimum effective concentration) (M. tuberculosis [1]): >50 µM
- Kd (EthR): 6 µM

SMILES: O=C(OCC1CCCC1)N1CCCC1 [Compound 2, cyclopentylmethyl pyrrolidine-1-carboxylate]
- MEC (minimum effective concentration) (M. tuberculosis [1]): 19 ± 7.5 µM
- Kd (EthR): 15 µM

SMILES: CN(C)C(=O)OCC1CCCC1 [Compound 26]
- MEC (minimum effective concentration) (M. tuberculosis [1]): 6.3 ± 3.6 µM

SMILES: O=C(CCCCC1CCCCC1)N1CCCC1 [Compound 15]
- fold drop in potency (MEC) on addition of an extra methylene unit to the linker (M. tuberculosis [1]): 4 fold
- MEC (minimum effective concentration) (M. tuberculosis [1]): 1.6 ± 0.8 µM

SMILES: O=C(CC12CC3CC(CC(C3)C1)C2)N1CCCC1 [Compound 17]
- fold increase in ethionamide boosting ability (M. tuberculosis [1]; 17 relative to the inactive amide 16): over 30 fold
- MEC (minimum effective concentration) (M. tuberculosis [1]): 1.6 ± 0.8 µM

SMILES: O=C(NCc1ccoc1)N1CCCC1 [Compound 9]
- MEC (minimum effective concentration) (M. tuberculosis [1]): >50 µM

SMILES: O=C(CCc1ccoc1)N1CCCC1 [Compound 8]
- MEC (minimum effective concentration) (M. tuberculosis [1]): >50 µM
- Kd (EthR): 22 µM

SMILES: O=C(NCC1CCCC1)C1CCCC1 [Compound 4]
- MEC (minimum effective concentration) (M. tuberculosis [1]): >50 µM
- Kd (EthR): 11 µM

SMILES: O=C(OCC1CC1)N1CCCC1 [Compound 23]
- MEC (minimum effective concentration) (M. tuberculosis [1]): 3.1 ± 1.8 µM
- ethionamide boosting in the macrophage assay [2]: significant boosting of ethionamide

SMILES: CCCCC(=O)N1CCCC1 [Compound 18]
- MEC (minimum effective concentration) (M. tuberculosis [1]): > 50 µM

SMILES: O=C(OCC1CCC1)N1CCCC1 [Compound 24]
- MEC (minimum effective concentration) (M. tuberculosis [1]): 3.1 ± 1.8 µM
